Here are results for two compounds from patent US20140194388A1, “COMBINATION THERAPY OF HSP90 INHIBITORY COMPOUNDS WITH CHK INHIBITORS” (SYNTA PHARMACEUTICALS CORP., priority 2011, published 2014).

For test [1], the system named is B-raf. The note with it: cited from earlier work.
Test [2] relates to CDK1. Kind of test: Western blotting, CDK1 level after ganetespib (FIG. 1). The class given is cell-based, human. On the procedure: (§1) The LNCaP, 22Rv1, DU145 and PC3 human prostate cancer cell lines were all purchased from the American Type Culture Collection (Manassas, Va., USA). Cells were maintained and cultured according to standard techniques at 37° C. in 5% (v/v) CO2 using culture medium recommended by the supplier. All primary antibodies were purchased from Cell Signaling Technology (Beverly, Mass., USA) with the exception of RAF1 (Santa Cruz Biotechnology, Santa Cruz, Calif., USA), p-EGFR (Tyr1068) (Invitrogen, Carlsbad, Calif., USA) and actin (GE Healthcare, UK). The Hsp90 inhibitors ganetespib and 17-AAG were synthesized at Synta Pharmaceuticals Corp.
(§2) Prostate cancer cell lines were lysed in RIPA buffer (Cell Signaling Technology, Beverly, Mass. USA). Lysates were clarified by centrifugation and equal amounts of protein resolved by SDS-PAGE before transfer to nitrocellulose membranes. Membranes were blocked with 5% skim milk in TBS with 0.5% Tween and immunoblotted with indicated antibodies. Antigen-antibody complexes were visualized using an Odyssey system (LI-COR, Lincoln, Nebr., USA).

In test [3] the test system is CHK1. The test can be described thus: Western blotting, CHK1 level / CHK activity after ganetespib (FIG. 1). The test is classed as cell-based, human. The protocol:
as §1, §2

Turning to `C=CCNC1=C2C[C@@H](C)C[C@H](OC)[C@H](O)[C@@H](C)/C=C(\C)[C@H](OC(N)=O)[C@@H](OC)/C=C\C=C(/C)C(=O)NC(=CC1=O)C2=O` [Compound 17AAG], the “degradation of B-raf” value in test [1] (cancer cells treated with 17AAG) is recorded as “stimulate the degradation of B-raf”. The “sensitivity of B-raf mutants E586K and L597V to degradation” value in test [1] (cells treated with 17AAG) is on record as “not sensitive to degradation”. Further, the “rate of B-raf degradation, V600E mutant vs wild type” value in test [1] (melanoma cell line A375 (V600E) vs CHL cells (wild type B-raf)) is “degraded more rapidly than in CHL cells”. Also, the “rate of degradation of B-raf mutants V600D, G469A, G469E, G596R, G466V, G594V” value in test [1] (transvected into COS cells) was “degraded more rapidly than wild type B-raf”.
With `CC(C)c1cc(-c2nnc(O)n2-c2ccc3c(ccn3C)c2)c(O)cc1O` [ganetespib, 3-(2,4-DIHYDROXY- 5-ISOPROPYL- PHENYL)-4-(1- METHYL-INDOL- 5-YL)-5- HYDROXY- [1,2,4]TRIAZOLE], in test [2], the “effect on stability of the master cell cycle regulator CDK1” value is “destabilizes”. Besides, in test [3], the “disruption of CHK activity by inhibition of Hsp90 activity” value was “highly effective in disrupting CHK activity”. Further, the “effect on stability of the DNA damage checkpoint CHK1” value in test [3] (FIG. 1) is “destabilizes”.
